The source of these data is ChEMBL document CHEMBL4251687, “Acyl Sulfonamides NaV1.7 Blockers Useful for the Treatment of Pain” (ACS Med Chem Lett, 2018).

Common to all, as to assay type: cell-based
Assay [1] has as its target T1, Sodium channel protein type 9 subunit alpha (Homo sapiens, UniProt Q15858). The experiment in a line: Displacement of [3H]-labelled radioligand from human Nav1.7 expressed in HEK293 cells measured after 24 hrs by liquid scintillation counting method. On the technique in general: In a radioligand displacement assay an active substance lowers the binding of a labelled ligand.

The target in assay [2] is T1, Sodium channel protein type 9 subunit alpha. The experiment in a line: Inhibition of Nav1.7 (unknown origin) expressed in HEK293 cells at -60 mV holding potential measured after 600 secs by patch clamp method.
Assay [3] concerns the target Sodium channel protein type 5 subunit alpha (Homo sapiens, UniProt Q14524). The experiment in a line: Inhibition of Nav1.5 (unknown origin) expressed in HEK293 cells at -40 mV holding potential measured after 600 secs by patch clamp method. A general note: Patch clamp records ionic current or voltage across a cell membrane.

T1 sequence (Q15858 whole entry): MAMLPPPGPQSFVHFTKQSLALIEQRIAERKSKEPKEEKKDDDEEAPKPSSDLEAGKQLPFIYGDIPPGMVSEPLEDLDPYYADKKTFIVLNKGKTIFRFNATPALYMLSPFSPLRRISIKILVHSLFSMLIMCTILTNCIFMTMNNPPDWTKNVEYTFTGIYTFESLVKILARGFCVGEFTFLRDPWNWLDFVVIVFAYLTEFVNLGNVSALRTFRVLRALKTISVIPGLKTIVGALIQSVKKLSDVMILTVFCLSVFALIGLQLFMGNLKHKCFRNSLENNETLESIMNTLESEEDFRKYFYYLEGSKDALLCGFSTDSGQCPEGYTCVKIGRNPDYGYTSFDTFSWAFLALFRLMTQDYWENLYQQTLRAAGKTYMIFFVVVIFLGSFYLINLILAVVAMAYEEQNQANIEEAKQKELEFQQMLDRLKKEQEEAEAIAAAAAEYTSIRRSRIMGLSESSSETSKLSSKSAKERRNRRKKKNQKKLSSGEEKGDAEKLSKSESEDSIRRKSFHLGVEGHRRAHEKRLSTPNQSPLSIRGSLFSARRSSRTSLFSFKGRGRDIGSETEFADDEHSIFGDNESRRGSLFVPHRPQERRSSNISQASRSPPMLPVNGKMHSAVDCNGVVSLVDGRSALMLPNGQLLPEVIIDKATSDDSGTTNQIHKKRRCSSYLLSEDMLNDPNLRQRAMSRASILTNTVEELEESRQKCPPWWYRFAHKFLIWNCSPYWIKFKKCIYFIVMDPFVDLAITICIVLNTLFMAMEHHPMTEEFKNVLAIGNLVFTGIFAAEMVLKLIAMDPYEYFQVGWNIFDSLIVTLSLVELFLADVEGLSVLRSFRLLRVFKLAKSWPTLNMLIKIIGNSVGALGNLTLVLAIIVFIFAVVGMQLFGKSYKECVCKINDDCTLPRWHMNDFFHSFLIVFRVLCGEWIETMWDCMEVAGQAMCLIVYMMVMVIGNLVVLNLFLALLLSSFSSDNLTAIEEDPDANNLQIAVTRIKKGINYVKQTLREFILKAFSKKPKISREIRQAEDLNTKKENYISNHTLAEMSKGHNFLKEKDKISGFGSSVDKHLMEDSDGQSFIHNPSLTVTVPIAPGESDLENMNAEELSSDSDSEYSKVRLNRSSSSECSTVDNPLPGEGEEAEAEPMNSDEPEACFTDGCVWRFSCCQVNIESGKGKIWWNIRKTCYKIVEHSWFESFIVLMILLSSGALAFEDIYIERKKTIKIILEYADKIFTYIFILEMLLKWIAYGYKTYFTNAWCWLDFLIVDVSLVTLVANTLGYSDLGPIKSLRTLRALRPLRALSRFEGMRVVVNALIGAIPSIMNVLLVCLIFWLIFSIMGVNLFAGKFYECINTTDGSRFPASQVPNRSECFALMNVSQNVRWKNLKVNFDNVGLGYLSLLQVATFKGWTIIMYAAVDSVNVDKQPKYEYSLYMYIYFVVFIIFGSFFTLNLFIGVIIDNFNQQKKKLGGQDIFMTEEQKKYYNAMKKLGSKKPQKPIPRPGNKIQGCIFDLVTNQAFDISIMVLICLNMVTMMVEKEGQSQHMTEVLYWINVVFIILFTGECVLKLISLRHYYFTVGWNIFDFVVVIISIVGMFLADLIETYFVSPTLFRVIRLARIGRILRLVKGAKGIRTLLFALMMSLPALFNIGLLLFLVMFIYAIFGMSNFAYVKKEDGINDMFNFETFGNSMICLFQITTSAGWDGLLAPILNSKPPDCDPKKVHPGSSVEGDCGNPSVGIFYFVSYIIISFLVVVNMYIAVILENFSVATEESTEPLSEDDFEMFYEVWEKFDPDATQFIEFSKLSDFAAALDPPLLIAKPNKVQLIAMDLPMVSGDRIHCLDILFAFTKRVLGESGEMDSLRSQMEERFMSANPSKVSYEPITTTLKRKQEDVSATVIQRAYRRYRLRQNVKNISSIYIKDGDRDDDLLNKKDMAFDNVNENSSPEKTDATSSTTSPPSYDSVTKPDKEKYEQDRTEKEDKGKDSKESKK
Sodium channel protein type 5 subunit alpha, sequence (Q14524 whole entry): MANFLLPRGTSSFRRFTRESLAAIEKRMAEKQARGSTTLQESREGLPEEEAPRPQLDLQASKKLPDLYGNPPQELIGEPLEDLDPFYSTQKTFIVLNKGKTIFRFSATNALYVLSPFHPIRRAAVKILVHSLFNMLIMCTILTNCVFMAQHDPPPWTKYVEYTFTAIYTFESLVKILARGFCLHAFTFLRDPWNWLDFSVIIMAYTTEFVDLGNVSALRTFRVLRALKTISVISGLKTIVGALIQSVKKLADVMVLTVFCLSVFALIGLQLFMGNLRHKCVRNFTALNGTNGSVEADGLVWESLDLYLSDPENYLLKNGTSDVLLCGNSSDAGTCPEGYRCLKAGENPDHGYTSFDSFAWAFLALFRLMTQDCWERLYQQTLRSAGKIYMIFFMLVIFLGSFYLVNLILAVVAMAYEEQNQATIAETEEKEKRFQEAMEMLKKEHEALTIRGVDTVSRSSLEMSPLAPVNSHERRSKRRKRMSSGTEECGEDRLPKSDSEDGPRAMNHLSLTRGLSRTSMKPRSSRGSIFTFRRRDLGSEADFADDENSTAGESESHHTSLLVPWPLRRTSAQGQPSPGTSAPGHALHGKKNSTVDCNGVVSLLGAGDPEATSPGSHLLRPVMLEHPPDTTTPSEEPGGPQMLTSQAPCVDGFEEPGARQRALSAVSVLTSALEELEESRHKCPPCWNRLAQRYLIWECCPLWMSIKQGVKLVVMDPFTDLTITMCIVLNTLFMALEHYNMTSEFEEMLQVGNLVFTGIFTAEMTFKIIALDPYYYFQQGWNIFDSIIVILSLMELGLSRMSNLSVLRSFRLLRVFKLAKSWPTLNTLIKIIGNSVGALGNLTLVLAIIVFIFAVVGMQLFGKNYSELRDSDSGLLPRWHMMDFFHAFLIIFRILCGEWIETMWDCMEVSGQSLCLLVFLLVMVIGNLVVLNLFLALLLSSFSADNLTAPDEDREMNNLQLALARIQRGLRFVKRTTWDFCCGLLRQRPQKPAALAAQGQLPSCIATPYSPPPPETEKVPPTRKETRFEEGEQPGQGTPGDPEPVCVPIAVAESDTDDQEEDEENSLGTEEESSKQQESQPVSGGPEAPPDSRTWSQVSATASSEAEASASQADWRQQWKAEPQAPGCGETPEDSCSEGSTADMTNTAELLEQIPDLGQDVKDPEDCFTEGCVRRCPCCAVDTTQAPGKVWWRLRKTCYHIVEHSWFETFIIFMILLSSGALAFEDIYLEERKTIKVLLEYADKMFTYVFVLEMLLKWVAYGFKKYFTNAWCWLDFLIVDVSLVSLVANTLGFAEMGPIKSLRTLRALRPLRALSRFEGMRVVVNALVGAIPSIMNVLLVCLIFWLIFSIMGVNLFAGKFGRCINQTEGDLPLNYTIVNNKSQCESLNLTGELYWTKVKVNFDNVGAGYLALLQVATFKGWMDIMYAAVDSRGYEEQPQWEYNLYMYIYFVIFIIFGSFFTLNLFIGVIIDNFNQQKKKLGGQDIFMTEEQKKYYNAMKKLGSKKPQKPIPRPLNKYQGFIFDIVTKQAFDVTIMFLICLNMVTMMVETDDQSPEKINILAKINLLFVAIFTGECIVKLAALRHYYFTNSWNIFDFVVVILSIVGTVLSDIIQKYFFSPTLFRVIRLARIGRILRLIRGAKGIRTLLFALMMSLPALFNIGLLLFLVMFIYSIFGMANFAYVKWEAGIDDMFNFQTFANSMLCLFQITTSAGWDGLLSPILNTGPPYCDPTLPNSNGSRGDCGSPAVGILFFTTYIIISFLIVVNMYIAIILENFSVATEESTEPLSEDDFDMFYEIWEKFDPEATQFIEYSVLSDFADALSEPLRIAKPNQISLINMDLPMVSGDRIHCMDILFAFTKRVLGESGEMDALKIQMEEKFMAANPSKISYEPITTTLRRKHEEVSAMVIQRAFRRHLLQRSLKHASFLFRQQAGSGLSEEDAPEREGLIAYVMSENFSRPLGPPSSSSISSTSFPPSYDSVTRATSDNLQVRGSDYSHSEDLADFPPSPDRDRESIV

A word on the IC50: it is the concentration that inhibits the measured activity by half. `Cn1cc(-c2ccc(C(F)F)cc2)c2cc(F)c(C(=O)NS(=O)(=O)C3CC3)cc21`: the IC50 in assay [1] came out at 46 nM.

`CC(C)COc1ncc(-c2cn(C)c3cc(C(=O)NS(C)(=O)=O)ccc23)cc1Cl` returned an IC50 in assay [2] of 90 nM. In assay [3], `Cn1cc(-c2ccc(C(F)(F)F)cc2)c2cc(F)c(C(=O)NS(C)(=O)=O)cc21` registered an IC50 of 30000 nM.
